Test results as given in PubChem BioAssay AID1963854 (Molecular Pharmacology Branch, DTP, NCI, 2024).

Tested on: 186277-243-T-J2-PDC complex spheroid viability
Test: Anticancer human tumor 186277-243-T-J2-PDC patient-derived colon adenocarcinoma cell line growth inhibition [POLQ]
Conditions: for IC50: curve of first compound; for viability, T/C: stronger effect = lower value
Outline: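 Growth inhibition in 3D: complex spheroids (tumor PDC, HUVEC, MSC) treated with POLQ inhibitor combinations; where Cmax unknown, highest tested concentration 10 microM, except SN-38 at 1 microM.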

[1] = second compound 0.0316 µM, first compound 0.0316 µM
[2] = second compound 0.0316 µM, first compound 0.1 µM
[3] = second compound 0.0316 µM, first compound 0.316 µM
[4] = second compound 0.0316 µM, first compound 1 µM
[5] = second compound 0.0316 µM, first compound 3.16 µM
[6] = second compound 0.0316 µM, first compound 10 µM
[7] = second compound 0.1 µM, first compound 0.0316 µM
[8] = second compound 0.1 µM, first compound 0.1 µM
[9] = second compound 0.1 µM, first compound 0.316 µM
[10] = second compound 0.1 µM, first compound 1 µM
[11] = second compound 0.1 µM, first compound 3.16 µM
[12] = second compound 0.1 µM, first compound 10 µM
[13] = second compound 0.316 µM, first compound 0.0316 µM
[14] = second compound 0.316 µM, first compound 0.1 µM
[15] = second compound 0.316 µM, first compound 0.316 µM
[16] = second compound 0.316 µM, first compound 1 µM
[17] = second compound 0.316 µM, first compound 3.16 µM
[18] = second compound 0.316 µM, first compound 10 µM
[19] = second compound 1 µM, first compound 0.0316 µM
[20] = second compound 1 µM, first compound 0.1 µM
[21] = second compound 1 µM, first compound 0.316 µM
[22] = second compound 1 µM, first compound 1 µM
[23] = second compound 1 µM, first compound 3.16 µM
[24] = second compound 1 µM, first compound 10 µM
[25] = second compound 3.16 µM, first compound 0.0316 µM
[26] = second compound 3.16 µM, first compound 0.1 µM
[27] = second compound 3.16 µM, first compound 0.316 µM
[28] = second compound 3.16 µM, first compound 1 µM
[29] = second compound 3.16 µM, first compound 3.16 µM
[30] = second compound 3.16 µM, first compound 10 µM
[31] = second compound 10 µM, first compound 0.0316 µM
[32] = second compound 10 µM, first compound 0.1 µM
[33] = second compound 10 µM, first compound 0.316 µM
[34] = second compound 10 µM, first compound 1 µM
[35] = second compound 10 µM, first compound 3.16 µM
[36] = second compound 10 µM, first compound 10 µM
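Note: spheroids exposed to compounds for seven days.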
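Throughout, for viability, T/C: 100% = DMSO vehicle control viability.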

C#Cc1c(F)ccc2cc(O)cc(-c3ncc4c(N5CC6CCC(C5)N6)nc(OCC56CCCN5CC(F)C6)nc4c3F)c12 (centres undefined) + Cc1cccc(N(C)C(=O)C2C(O)CCN2c2nc(C)cc(C(F)(F)F)c2C#N)c1
IC50 (second compound 0.0316 µM): 97.5 nM | IC50 (second compound 0.1 µM): 113 nM | IC50 (second compound 0.316 µM): 79.9 nM | IC50 (second compound 1 µM): 84.2 nM | IC50 (second compound 3.16 µM): 63.9 nM | IC50 (second compound 10 µM): 32.8 nM | viability, T/C [1]: 81.1% | viability, T/C [2]: 49.3% | viability, T/C [3]: 21.4% | viability, T/C [4]: 8.81% | viability, T/C [5]: 6.82% | viability, T/C [6]: 4.22% | viability, T/C [7]: 80.7% | viability, T/C [8]: 53.5% | viability, T/C [9]: 21.9% | viability, T/C [10]: 9.85% | viability, T/C [11]: 6.56% | viability, T/C [12]: 4.18% | viability, T/C [13]: 86.9% | viability, T/C [14]: 41% | viability, T/C [15]: 16.9% | viability, T/C [16]: 8.42% | viability, T/C [17]: 6.35% | viability, T/C [18]: 5.85% | viability, T/C [19]: 89.8% | viability, T/C [20]: 43% | viability, T/C [21]: 19.6% | viability, T/C [22]: 11% | viability, T/C [23]: 6.21% | viability, T/C [24]: 4.34% | viability, T/C [25]: 80.6% | viability, T/C [26]: 30.4% | viability, T/C [27]: 11.1% | viability, T/C [28]: 6.02% | viability, T/C [29]: 6.21% | viability, T/C [30]: 5.42% | viability, T/C [31]: 51.6% | viability, T/C [32]: 18.2% | viability, T/C [33]: 11% | viability, T/C [34]: 5.4% | viability, T/C [35]: 4.3% | viability, T/C [36]: 3.05%

Nc1ccn(C2OC(CO)C(O)C2(F)F)c(=O)n1 (centres undefined) + COC1C(OC(N)=O)C(O)C(Oc2ccc3c(O)c(NC(=O)c4ccc(O)c(CC=C(C)C)c4)c(=O)oc3c2C)OC1(C)C
IC50 (second compound 0.0316 µM): < 31.6 nM | IC50 (second compound 0.1 µM): < 31.6 nM | IC50 (second compound 0.316 µM): < 31.6 nM | IC50 (second compound 1 µM): < 31.6 nM | IC50 (second compound 3.16 µM): < 31.6 nM | IC50 (second compound 10 µM): < 31.6 nM | viability, T/C [1]: 7.44% | viability, T/C [2]: 5.74% | viability, T/C [3]: 6.22% | viability, T/C [4]: 6.52% | viability, T/C [5]: 5.93% | viability, T/C [6]: 5.3% | viability, T/C [7]: 7.07% | viability, T/C [8]: 5.49% | viability, T/C [9]: 6.25% | viability, T/C [10]: 6.16% | viability, T/C [11]: 7.16% | viability, T/C [12]: 5.7% | viability, T/C [13]: 6.61% | viability, T/C [14]: 5.95% | viability, T/C [15]: 6.28% | viability, T/C [16]: 6.18% | viability, T/C [17]: 6.62% | viability, T/C [18]: 5.63% | viability, T/C [19]: 6.65% | viability, T/C [20]: 5.29% | viability, T/C [21]: 5.98% | viability, T/C [22]: 6.8% | viability, T/C [23]: 6.08% | viability, T/C [24]: 5.74% | viability, T/C [25]: 5.98% | viability, T/C [26]: 5.52% | viability, T/C [27]: 5.91% | viability, T/C [28]: 5.81% | viability, T/C [29]: 7.8% | viability, T/C [30]: 5.79% | viability, T/C [31]: 6.27% | viability, T/C [32]: 5.86% | viability, T/C [33]: 6.51% | viability, T/C [34]: 6.65% | viability, T/C [35]: 7.8% | viability, T/C [36]: 5.54%
